Reference: patent publication US6770738B1, “Higher order structure and binding of peptide nucleic acids” (ISIS Pharmaceuticals, Inc., priority 1992, dated 2004)
{NH2} = free C-terminal carboxamide without lysine

Key:
Format in all cases: binding
[1] = tested on: complementary deoxyoligonucleotide; assay: Melting temperature of complexes with complementary DNA; details: 100 mM NaCl, 10 mM Na-phosphate, 0.1 mM EDTA, pH 7, 4 μM of each strand
Method: (§1) The thermal stability measured as the melting temperature, Tm, of complexes between the pentadecamer, H-TGTACGTCACAACTA-NH2 (SEQ ID NO:10) and the complementary deoxyoligonucleotide 3′-ACATGCAGTGTTGAT (SEQ ID NO:47) (termed anti-parallel orientation: amino terminal of the PNA complementary to the 3′-end of the oligonucleotide) was 69.5° C. (see Table II), whereas the Tm of the corresponding PNA-DNA complex in parallel orientation was 56.1° C. The Tm for the PNA-RNA complexes was 72.3 and 51.2° C., respectively (see Table II). The orientation preference was further settled by using two decamer PNAs, and hybridizing these to complementary oligonucleotides in both orientations. The anti-parallel orientation was preferred in all cases (see Table II). Furthermore, it is noteworthy that virtually identical Tms were obtained regardless of which strand is the PNA and which is the DNA (see Table II, 2nd & 3rd row).

[2] = tested on: complementary RNA; assay: Melting temperature of complexes with complementary RNA; details: 100 mM NaCl, 10 mM Na-phosphate, 0.1 mM EDTA, pH 7, 4 μM of each strand
Method: as §1

[3] = tested on: oligonucleotides 3′-d(ACATGXYZVGTTGAT) with a single base mismatch; assay: Effect of base pair mismatches on thermal stability of PNA/DNA complexes; details: mismatch facing GTCA; 10 mM Na-phosphate, pH 7.0, 150 mM NaCl, 1 mM MgCl2
Source text: To test if PNA containing all four natural nucleobases is a true DNA mimic in terms of base pair specific hybridization to complementary oligonucleotides a pentadecamer PNA was designed to contain an almost equal number of pyrimidines and purines yet having no more than two purines or pyrimidines juxtaposed. It contains an equal number of thymines and cytosines and a single guanine. Furthermore, the sequence of the pentadecamer is non-selfcomplementary and contains a GTCA sequence at the center. By measuring the thermal stability of complexes between the PNA pentadecamer and the Watson-Crick complementary oligonucleotide, as well as 12 other oligonucleotides each having a single base mismatch at one of the four center PNA nucleobases, information about PNA-DNA base pair recognition was obtained. Finally, the PNA was designed with no pyrimidine stretches so as to strongly disfavor—if not prohibit—triplex formation.
In each of the twelve other oligonucleotides, three of the bases (X,Y,Z,V) were complementary while the fourth was one of the three non-complementary nucleobases. For example, when (X=T,Y=G,Z=A) then V=A or C or G etc. Thus each of the twelve oligonucleotides contains one of the twelve possible base pair mismatches relative to the PNA pentadecamer. […] Hybridizations were performed in 10 mM Na-phosphate, pH 7.0, 150 mM NaCl, 1 mM MgCl2.

[4] = tested on: complementary DNA; assay: Thermodynamics of duplex formation with DNA
Method: (§2) Thermodynamics parameters for hybridization can be extracted from thermal stability measurements when these are performed at varying concentrations of the complexes, or from the shape of the thermal denaturation curves. Both methods were used to determine ΔH°, ΔS° and ΔG° for formation of the PNA/RNA, DNA/RNA, PNA/DNA and DNA/DNA duplexes (Table III). It is remarkable that the decrease in entropy is almost identical for the formation of DNA/DNA and PNA/DNA duplexes and that both reactions are strongly enthalpy driven.

[5] = tested on: complementary RNA; assay: Thermodynamics of duplex formation with RNA
Method: as §2

[6] = tested on: RNA target 5′-TAGTTGTGACGTACA-3; assay: Equilibrium and rate constants for duplexes with RNA (gel-shift); details: [Na+] 0.1 M, 37 ° C.; 100 mM NaCl, 10 mM phosphate, 1 mM EDTA, pH 7.0
[7] = 8 μM, average of the two methods
[8] = 8 μM, fit to modified two state model
[9] = 8 μM, linear plots of 1/TM versus log (concentration)
[10] = fit to modified two state model
[11] = fit to modified two state model, 100 mM NaCl, 10 mM Na-phosphate, 0.1 mM EDTA, pH 7.0
[12] = linear plots of 1/TM versus log (concentration)

H-TGTACGTCACAACTA-NH2 (all peptide nucleic acid (PNA), 3' {NH2}; written N- to C-terminal) [PNA TGTACGTCACAACTA]
Melting temperature Tm, PNA:DNA (anti-parallel) ([1]; anti-parallel): 69.5 °C
Melting temperature Tm, PNA:DNA (parallel) ([1]; parallel): 56.1 °C
Melting temperature Tm, PNA:RNA (anti-parallel) ([2]; anti-parallel): 72.3 °C
Melting temperature Tm, PNA:RNA (parallel) ([2]; parallel): 51.2 °C
change in Tm on a Watson-Crick base pair mismatch [3]: 8-20 °C
TM (average of the two methods) [4, 7]: 68.8 °C
TM (melting curve fit) [4, 8]: 68.9 °C
TM (1/TM versus log concentration) [4, 9]: 68.8 °C
ΔG°37 (average of the two methods) ([4]; average of the two methods): -17.9 kcal/mol
ΔH° (average of the two methods) ([4]; average of the two methods): -105.0 kcal/mol
ΔS° (average of the two methods) ([4]; average of the two methods): −281.1 eu
ΔG°3 (melting curve fit) [4, 10]: −17.7
ΔS° (melting curve fit) [4, 10]: −276.4 eu
ΔH° (melting curve fit) [4, 11]: -103.5 kcal/mol
ΔG°37 (1/TM versus log concentration) [4, 12]: −18.0 kcal/mol
ΔH° (1/TM versus log concentration) [4, 12]: −106.6 kcal/mol
ΔS° (1/TM versus log concentration) [4, 12]: −285.8 eu
TM (average of the two methods) [5, 7]: 72.2 °C
TM (melting curve fit) [5, 8]: 72.3 °C
TM (1/TM versus log concentration) [5, 9]: 72.2 °C
ΔG°37 (average of the two methods) ([5]; average of the two methods): -20.2 kcal/mol
ΔH° (average of the two methods) ([5]; average of the two methods): -119.1 kcal/mol
ΔS° (average of the two methods) ([5]; average of the two methods): −318.7 eu
ΔG°3 (melting curve fit) [5, 10]: −19.3
ΔS° (melting curve fit) [5, 10]: −291.4 eu
ΔH° (melting curve fit) [5, 11]: -109.7 kcal/mol
ΔG°37 (1/TM versus log concentration) [5, 12]: −21.2 kcal/mol
ΔH° (1/TM versus log concentration) [5, 12]: −128.5 kcal/mol
ΔS° (1/TM versus log concentration) [5, 12]: −345.9 eu
k1 [6]: 2e+06 M⁻¹ s⁻¹
